The record followed here is patent publication US4002674A (priority 1974, dated 1977).

Test [1] concerns Newcastle disease virus (NDV). Put plainly: microbe, parasite or virus in culture. It counts as cell-based, Newcastle disease virus; chick embryo tissue culture. The note with it: for inhibition at 4 µg/mL / inhibition at 8 µg/mL / inhibition at 16 µg/mL: avian paramyxovirus 1, in Gallus gallus, 48 h, read-out: % Inhibition of NDV Multiplications.
Test [2] is described as follows: antiviral activity in vivo. The settings on record: no test details given.

Counter-ions that a name gives are not always drawn.

The term inhibition denotes the drop in the measured response relative to a control, in per cent. As to `NC12CC3CC(CC(C3)C1)C2` [Amantadine . HCl, amantadine hydrochloride, reference compound], in test [1], the inhibition at 4 µg/mL came to 0%, the inhibition at 8 µg/mL is 0% and the inhibition at 16 µg/mL is 0%.
Consider `COC(=O)C12CCCC3CC(CCC31)C2` (stereo not drawn) [VI, Methyl 4-homoisotwistane-3-carboxylate], for which, in test [2], the “antiviral activity in vivo” value is reported as “potent antiviral activity in vivo”. In test [1], the inhibition at 4 µg/mL worked out at 0%, the inhibition at 8 µg/mL stood at 91.2% and the inhibition at 16 µg/mL worked out at 99.4%. The “antiviral activity compared with amantadine hydrochloride” value in test [1] (in vitro, NDV, versus amantadine hydrochloride) was “extremely superior”. Further, the “virus replication in the tissue culture” value in test [1] (tissue culture containing above 4 μg/ml) is reported as “almost completely inhibited”.
